From US20100137342A1, “METHODS FOR TREATING VASCULAR […]” (Myriad Pharmaceuticals, Inc., priority 2007, published 2010)
Counter-ions that a name gives are not always drawn.

Assays:
[1] = Phase I clinical trial, weekly intravenous administration, subjects with refractory solid tumors; type: in vivo, human; conditions: Phase 1, i.v. weekly x3 per 4 week cycle, 0.3-3.3 mg/m^2
Procedure: An open-label, dose-escalating, multiple-dose study to define the safety, tolerability and phamacokinetics of weekly intravenous administration of (4-Methoxy-phenyl)-methyl-(2-methyl-quinazolin-4-yl)-amine hydrochloride was performed. A dosing schedule (each 4 week cycle) was performed for (4-Methoxy-phenyl)-methyl-(2-methyl-quinazolin-4-yl)-amine hydrochloride weekly for 3 weeks with no infusion on the fourth week of each cycle. Subjects with refractory solid tumors were enrolled in cohorts of 3. During Cycle 1, subjects were hospitalized during each infusion of (4-Methoxy-phenyl)-methyl-(2-methyl-quinazolin-4-yl)-amine hydrochloride and remained for observation and safety evaluation for approximately 24 hours following the end of the infusion. All subject had continuous telemetry for 2 hours prior to infusion, for 1-2 hour infusion and for 3 hours after the end of the infusion. Any clinically significant electrocardiographic (ECG) wave form abnormality was recorded and prolongation of the monitoring period extended at the discretion of the principal investigator.
Electrocardiograms were obtained prior to starting the infusion and within 30 minutes of the end of infusion for each infusino of the first cycle. Electrocardiograms on Day 1 were obtained in triplicate 5 minutes apart.
Neurocognitive assessments were made by administration of the Mini-Mental State Examination (MMSE), the Hopkins Verbal Learning and timed Grooved Pegboard tests before administration of the intravenous infusion and approximately 24 hours of the infusion at each weekly administration of the first cycle.
On days 1, 8, and 15 of each cycle, vital signs were obtained prior to the first dose, at 15, 30, and 60 minutes after the initiation of the infusion, and at 0.5, 1, 1.5, 2, and 4 hours after the end of the intravenous infusion. Vital signs at all time points beyond the start of the intravenous infusion included heart rate, blood pressure and respirations. Temperature ws measured at the end of the infusion and 4 hours later.
Individual subjects were allowed to continue on repeated weekly×3 administrations every 28 days with no dose increase provided there was no unacceptable toxicity or disease progression.
Tumor response was evaluated by response evaluation criteria in solid tumors (RECIST) criteria. To prevent sever hypersensitivity reactions due to Cremophor® EL, subjects were premedicated with oral dexamethasone (20 mg) administered approximately 12 and 6 hours before the intravenous infusion with (4-Methoxy-phenyl)-methyl-(2-methyl-quinazolin-4-yl)-amine hydrochloride, diphenhydramine (50 mg) or its equivalent administered intravenously 30-60 minutes before (4-Methoxy-phenyl)-methyl-(2-methyl-quinazolin-4-yl)-amine hydrochloride, and cimetidine (300 mg) or ranitidine (50 mg) administered intravenously 30-60 minutes before (4-Methoxy-phenyl)-methyl-(2-methyl-quinazolin-4-yl)-amine hydrochloride.

[2] = tested on: human ovarian OVCAR-3 carcinoma cells; assay: Vascular disruption effects in human tumor xenograft model (tumor histology, hematoxylin and eosin); type: in vivo, mice; conditions: 24 hours after dosing; for blood vessels in the necrotic areas / tumor necrosis pattern (central area of the tumors): OVCAR-3 xenograft in Crl:Nu/Nu-nuBR mice, 10 mg/kg compound or 100 mg/kg CA4P, H&E sections
Procedure: (4-Methoxy-phenyl)-methyl-(2-methyl-quinazolin-4-yl)-amine hydrochloride was tested in a human tumor xenograft model to determine its vascular disruption effects. Crl:Nu/Nu-nuBR mice were grown and injected with 1×10^7 human ovarian OVCAR-3 carcinoma cells on the right flank and allowed to grow to various tumor volumes. Mice were then dosed with either vehicle, 100 mg/kg combretastatin A-4 phosphate (CA4P) (obtained from Toronto Research Chemicals, Ontario, Canada) or 10 mg/kg (4-Methoxy-phenyl)-methyl-(2-methyl-quinazolin-4-yl)-amine hydrochloride.
Animals were housed by groups in Positive Individual Ventilation (PIV) cages in flat-bottom cages (Thoren Caging Systems, Hazelton, Pa.) with no more than ten mice per cage. Cages contained autoclaved TEK-Fresh bedding (Harlan, Indianapolis, Ind.), which was changed every seven days. Environmental controls were set to maintain a temperature between 65° F. and 75° F. with a relative humidity of 30-70% in a 12:12 hour light:dark cycle. Animals were feed gamma-irradiated 2019 rodent chow ad libitum (Harlan, Indianapolis, Ind.). Tap water was sterilized using manufacture recommended conditions and supplied via an automated watering system ad libitum (Edstrom Industries, Waterford, Wis.). Twenty four hours after dosing, mice were sacrificed and tumors and hearts removed, fixed, sectioned and stained with hematoxylin and eosin Y (each obtained from Richard Allen Scientific, Kalamazoo, Mich.).

## COc1ccc(N(C)c2nc(C)nc3ccccc23)cc1 [(4-Methoxy-phenyl)-methyl-(2-methyl-quinazolin-4-yl)-amine hydrochloride]
[1]
  bradycardia: occasional episodes of bradycardia
  dose limiting toxicity: vascular in nature, manifested by an acute coronary syndrome
  intratumor bleeding: incidences of intratumor bleeding
  overall safety and tolerability: safe and tolerable
  peripheral cytotoxicity: no evidence of cytotoxity peripherally
  systolic blood pressure: dose-related increase
[1]; ECG
  effects on cardiac conduction (PR, QRS or QTc): no significant effects
[2]
  blood vessels in the necrotic areas: consistently congested with perivascular hemorrhage
  tumor necrosis pattern (central area of the tumors): extensive necrosis with a rim of viable tumor tissue around the periphery
[2]; OVCAR-3 xenograft, 10 mg/kg compound vs 100 mg/kg CA4P
  degree of necrosis compared with CA4P treated animals: degree of necrosis appeared greater

## COc1ccc(/C=C\c2cc(OC)c(OC)c(OC)c2)cc1OP(=O)(O)O [CA4P, combretastatin A-4 phosphate, reference compound]
[2]
  blood vessels in the necrotic areas: consistently congested with perivascular hemorrhage
  tumor necrosis pattern (central area of the tumors): extensive necrosis with a rim of viable tumor tissue around the periphery
